Assay results from ChEMBL document CHEMBL1795343, “SAR of 2-amino and 2,4-diamino pyrimidines with in vivo efficacy against Trypanosoma brucei” (Bioorg Med Chem Lett, 2011).
Values after ≈ are worked out from the molar mass of the structure shown.

Key:
[1] = tested on: MDCK; assay: Absorption quotient of the compound across MDCK cells expressing human MDR1; assay type: ADME, cell-based, Canis lupus familiaris; conditions: dog
[2] = tested on: Trypanosoma brucei brucei; assay: Antitrypanosomal activity against Trypanosoma brucei brucei in nonCNS acute HAT mouse model assessed as cure rate; assay type: functional
[3] = tested on: MDR1 (P-gp); assay: Apparent permeability of the compound across MDCK cells expressing human MDR1 in absence of P-gp inhibitor GF120918; assay type: ADME, cell-based, Canis lupus familiaris; conditions: dog
[4] = tested on: Trypanosoma brucei brucei; assay: Antitrypanosomal activity against Trypanosoma brucei brucei; assay type: functional, organism-based
[5] = Half life in S9 microsomes; assay type: ADME, subcellular, S9 fraction
[6] = tested on: L929; assay: Cytotoxicity against mouse L929 cells; assay type: cell-based
[7] = Aqueous solubility of the compound; assay type: physicochemical; conditions: buffer
[8] = tested on: MDCK; assay: Permeability of the compound across MDCK cells expressing human MDR1; assay type: ADME, cell-based, Canis lupus familiaris; conditions: dog
[9] = tested on: Trypanosoma brucei brucei; assay: Antitrypanosomal activity against Trypanosoma brucei brucei infected in nonCNS acute HAT mouse model assessed as cure rate at 20 mg/kg, po administered after 30 days; assay type: functional
[10] = tested on: Trypanosoma brucei brucei; assay: Antitrypanosomal activity against Trypanosoma brucei brucei infected in nonCNS acute HAT mouse model assessed as cure rate at 20 mg/kg, ip administered after 30 days; assay type: functional; conditions: route intraperitoneal

SMILES | IC50 [4] [µM] | half-life [5] [h] | IC50 [6] [µM] | further results
COc1ccc(F)cc1C(=O)c1cnc(NC2CCN(S(C)(=O)=O)CC2)nc1 | 0.57 |  |  | AQ [1]: 0.18; Activity [2]: 66%; Papp [3]: 56.1 ×10⁻⁶ cm/s
COc1ccccc1C(=O)c1cnc(NC2CCN(C(=O)Cc3ccccc3)CC2)nc1N | 0.34 | 0.533 | 20 | solubility [7]: 6 µM (≈ 2.67 µg/mL)
COc1ccccc1C(=O)c1cnc(NC2CCN(S(=O)(=O)Cc3ccccc3)CC2)nc1N | 0.37 | 0.133 | 9.1 | solubility [7]: 2 µM (≈ 0.963 µg/mL)
COc1ccccc1C(=O)c1cnc(NC2CCN(C(=O)Nc3ccccc3)CC2)nc1N | 0.045 | 1.6 | 7.5 | permeability [8]: impermeable; Activity [9]: 100%; AQ [1]: 0.63; solubility [7]: 25 µM (≈ 11.2 µg/mL); Activity [10]: 100%; Papp [3]: 15.1 ×10⁻⁶ cm/s
COc1ccccc1C(=O)c1cnc(NC2CCN(c3nc4ccccc4[nH]3)CC2)nc1N | 0.088 | 1.6 | 7.6 | solubility [7]: 13 µM (≈ 5.77 µg/mL)
COc1ccccc1C(=O)c1cnc(NC2CCN(c3nc4ccccc4n3C)CC2)nc1N | 1.53 |  | > 22 | 
COc1ccccc1C(=O)c1cnc(NC2CCN(c3nc4ccccc4s3)CC2)nc1N | 0.29 | 0.667 | 15 | 
COc1ccccc1C(=O)c1cnc(NC2CCN(c3nccs3)CC2)nc1N | 3.1 |  | > 24 | 
COc1ccccc1C(=O)c1cnc(NC2CCN(C(=O)Nc3ccccc3F)CC2)nc1N | 0.13 |  | 4.1 | 
COc1ccccc1C(=O)c1cnc(NC2CCN(C(=O)Nc3cccc(F)c3)CC2)nc1N | 0.043 | 2.82 | 9.3 | solubility [7]: 13 µM (≈ 6.04 µg/mL)
COc1ccccc1C(=O)c1cnc(NC2CCN(C(=O)Nc3ccc(F)cc3)CC2)nc1N | 0.065 | 2.53 | 4.6 | solubility [7]: 25 µM (≈ 11.6 µg/mL)
COc1ccccc1C(=O)c1cnc(NC2CCN(C(=O)Nc3ccccc3C)CC2)nc1N | 0.41 |  | 10 | 
COc1ccccc1C(=O)c1cnc(NC2CCN(C(=O)Nc3cccc(C)c3)CC2)nc1N | 0.11 |  | 7.1 | 
COc1ccccc1C(=O)c1cnc(NC2CCN(C(=O)Nc3ccc(C)cc3)CC2)nc1N | 0.11 |  | 2.9 | 
COc1ccccc1NC(=O)N1CCC(Nc2ncc(C(=O)c3ccccc3OC)c(N)n2)CC1 | 0.19 |  | 1.2 | 
COc1cccc(NC(=O)N2CCC(Nc3ncc(C(=O)c4ccccc4OC)c(N)n3)CC2)c1 | 0.29 |  | 6.9 | 
COc1ccc(NC(=O)N2CCC(Nc3ncc(C(=O)c4ccccc4OC)c(N)n3)CC2)cc1 | 0.36 |  | 3.4 | 
COc1ccccc1C(=O)c1cnc(N[C@H]2CC[C@@H](C(=O)Nc3ccccc3)CC2)nc1N | > 11 |  | > 22 | 
COc1ccccc1C(=O)c1cnc(N[C@H]2CC[C@H](C(=O)Nc3ccccc3)CC2)nc1N | 4.6 |  | 4.6 | 

SMILES | IC50 [4] [µM] | half-life [5] [h] | IC50 [6] [µM] | further results
COc1ccccc1C(=O)c1cnc(NCCCNC(=O)Nc2ccccc2)nc1N | 4.5 |  | 11 | 
COc1ccccc1C(=O)c1cnc(N2CCN(C(=O)Nc3ccccc3)CC2)nc1N | > 12 |  | > 27 | 
COc1ccccc1C(=O)c1cnc(NC2CCN(C(=O)Nc3ccccc3)C2)nc1N (stereo not drawn) | 5.5 |  | 13 | 
CS(=O)(=O)N1CCC(Nc2ncc(C(=O)c3ccccc3)c(N)n2)CC1 | 7.4 |  |  | 
Cc1ccccc1C(=O)c1cnc(NC2CCN(S(C)(=O)=O)CC2)nc1N | 1.8 |  |  | 
COc1cccc(C(=O)c2cnc(NC3CCN(S(C)(=O)=O)CC3)nc2N)c1 | 10 |  |  | 
COc1ccc(C(=O)c2cnc(NC3CCN(S(C)(=O)=O)CC3)nc2N)cc1 | > 12 |  |  | 
COc1ccc(F)cc1C(=O)c1cnc(NC2CCN(C(=O)Nc3ccccc3)CC2)nc1N | 0.03 |  |  | 
CCc1ccccc1C(=O)c1cnc(NC2CCN(C(=O)Nc3ccccc3)CC2)nc1N | 0.17 |  |  | 
CCOc1ccccc1C(=O)c1cnc(NC2CCN(C(=O)Nc3ccccc3)CC2)nc1N | 0.26 |  |  | 
COc1ccccc1C(=O)c1cnc(NC2CCN(C(=O)Nc3ccccc3)CC2)nc1 | 0.33 | 2.8 |  | AQ [1]: 0.14; Activity [2]: 33%; Papp [3]: 39.8 ×10⁻⁶ cm/s
COc1ccccc1C(=O)c1cnc(NC2CCN(C(=O)Nc3ccccc3)CC2)nc1C | 1.6 | 1.22 |  | 
COc1ccccc1C(=O)c1cnc(NC2CCN(c3nc4ccccc4[nH]3)CC2)nc1 | 0.31 | 0.75 |  | AQ [1]: 0.77; Papp [3]: 11.4 ×10⁻⁶ cm/s
COc1ccccc1C(=O)c1cnc(NC2CCN(S(C)(=O)=O)CC2)nc1 | 1.8 | 3.72 |  | 
COc1ccccc1C(=O)c1cnc(NC2CCN(S(C)(=O)=O)CC2)nc1C | > 12 | 7.23 |  | 
COc1ccccc1C(=O)c1cnc(NC2CCN(S(C)(=O)=O)CC2)nc1N | 0.66 | > 5.83 | 11 | permeability [8]: impermeable; Activity [9]: 100%; solubility [7]: 50 µM (≈ 20.3 µg/mL); Activity [10]: 100%
COc1ccccc1C(=O)c1cnc(NC2CCN(C(C)=O)CC2)nc1N | 3.3 |  | > 27 | 
COc1ccc(F)cc1C(=O)c1cnc(NC2CCN(S(C)(=O)=O)CC2)nc1N | 0.17 | > 5.83 |  | permeability [8]: impermeable; Activity [9]: 100%; AQ [1]: 0.49; Activity [10]: 100%; Papp [3]: 27.2 ×10⁻⁶ cm/s
COc1ccccc1C(=O)c1cnc(NC2CCNCC2)nc1N | > 14 |  |  | 
